Data reported in ChEMBL document CHEMBL1201862, “PubChem BioAssay data set” (2004).
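Grown in 96-well plates, cells were treated for 48 hours with each compound at five concentrations. Insufficient inhibition: endpoint recorded as highest concentration tested. GI50 marks 50% less growth.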 Calls of active or inactive are those of the source. Cut-off read from the data, not from the text of the source: active = GI50 up to about 1.1 µM and inactive = higher.

How the values were obtained:
Test in all cases: inhibition of tumour cell growth, NCI panel, 48 h
786-0 = test system: 786-0
A498 = test system: A498
A549 = test system: A549
ACHN = test system: ACHN
BT-549 = test system: BT-549
CAKI-1 = test system: CAKI-1
CCRF-CEM = test system: CCRF-CEM
COLO 205 = test system: COLO 205
DU-145 = test system: DU-145
EKVX = test system: EKVX
HCC 2998 = test system: HCC 2998
HCT-116 = test system: HCT-116
HCT-15 = test system: HCT-15
HL-60 = test system: HL-60
HOP-62 = test system: HOP-62
HOP-92 = test system: HOP-92
HT-29 = test system: HT-29
Hs-578T = test system: Hs-578T
IGROV-1 = test system: IGROV-1
K562 = test system: K562
KM12 = test system: KM12
LOX IMVI = test system: LOX IMVI
M14 = test system: M14
MCF7 = test system: MCF7
MDA-MB-231 = test system: MDA-MB-231
MDA-MB-435 = test system: MDA-MB-435
MDA-N = test system: MDA-N
MOLT-4 = test system: MOLT-4
Malme-3M = test system: Malme-3M
NCI-H226 = test system: NCI-H226
NCI-H23 = test system: NCI-H23
NCI-H522 = test system: NCI-H522
NCI/ADR-RES = test system: NCI/ADR-RES
OVCAR-3 = test system: OVCAR-3
OVCAR-4 = test system: OVCAR-4
OVCAR-5 = test system: OVCAR-5
OVCAR-8 = test system: OVCAR-8
PC-3 = test system: PC-3
RPMI-8226 = test system: RPMI-8226
RXF 393 = test system: RXF 393
SF-268 = test system: SF-268
SF-295 = test system: SF-295
SF-539 = test system: SF-539
SK-MEL-28 = test system: SK-MEL-28
SK-MEL-2 = test system: SK-MEL-2
SK-MEL-5 = test system: SK-MEL-5
SN12C = test system: SN12C
SNB-19 = test system: SNB-19
SW-620 = test system: SW-620
T47D = test system: T47D
TK-10 = test system: TK-10
U-251 = test system: U-251
UACC-257 = test system: UACC-257
UACC-62 = test system: UACC-62
UO-31 = test system: UO-31
NCI-H460 = test system: NCI-H460
SK-OV-3 = test system: SK-OV-3
SNB-75 = test system: SNB-75
SR = test system: SR

C[C@H](NC(=O)C(C)(Cc1ccc(O)cn1)NC(=O)c1ccccc1)c1ccccc1 (some centres undefined)
GI50 (786-0): > 100 µM (inactive) | GI50 (A498): > 100 µM (inactive) | GI50 (A549): > 100 µM (inactive) | GI50 (ACHN): > 100 µM (inactive) | GI50 (BT-549): > 100 µM (inactive) | GI50 (CAKI-1): > 100 µM (inactive) | GI50 (CCRF-CEM): > 100 µM (inactive) | GI50 (COLO 205): > 100 µM (inactive) | GI50 (DU-145): > 100 µM (inactive) | GI50 (EKVX): > 100 µM (inactive) | GI50 (HCC 2998): > 100 µM (inactive) | GI50 (HCT-116): > 100 µM (inactive) | GI50 (HCT-15): > 100 µM | GI50 (HL-60): > 100 µM (inactive) | GI50 (HOP-62): > 100 µM (inactive) | GI50 (HOP-92): > 100 µM (inactive) | GI50 (HT-29): > 100 µM (inactive) | GI50 (Hs-578T): > 100 µM (inactive) | GI50 (IGROV-1): > 100 µM (inactive) | GI50 (K562): > 100 µM (inactive) | GI50 (KM12): > 100 µM (inactive) | GI50 (LOX IMVI): > 100 µM (inactive) | GI50 (M14): > 100 µM (inactive) | GI50 (MCF7): > 100 µM (inactive) | GI50 (MDA-MB-231): > 100 µM (inactive) | GI50 (MDA-MB-435): > 100 µM (inactive) | GI50 (MDA-N): > 100 µM (inactive) | GI50 (MOLT-4): > 100 µM (inactive) | GI50 (Malme-3M): > 100 µM (inactive) | GI50 (NCI-H226): > 100 µM (inactive) | GI50 (NCI-H23): > 100 µM (inactive) | GI50 (NCI-H522): > 100 µM (inactive) | GI50 (NCI/ADR-RES): > 100 µM (inactive) | GI50 (OVCAR-3): > 100 µM (inactive) | GI50 (OVCAR-4): > 100 µM (inactive) | GI50 (OVCAR-5): > 100 µM (inactive) | GI50 (OVCAR-8): > 100 µM (inactive) | GI50 (PC-3): > 100 µM (inactive) | GI50 (RPMI-8226): > 100 µM (inactive) | GI50 (RXF 393): > 100 µM (inactive) | GI50 (SF-268): > 100 µM (inactive) | GI50 (SF-295): > 100 µM (inactive) | GI50 (SF-539): > 100 µM (inactive) | GI50 (SK-MEL-28): > 100 µM (inactive) | GI50 (SK-MEL-2): > 100 µM (inactive) | GI50 (SK-MEL-5): > 100 µM (inactive) | GI50 (SN12C): > 100 µM (inactive) | GI50 (SNB-19): > 100 µM (inactive) | GI50 (SW-620): > 100 µM (inactive) | GI50 (T47D): > 100 µM (inactive) | GI50 (TK-10): > 100 µM (inactive) | GI50 (U-251): > 100 µM (inactive) | GI50 (UACC-257): > 100 µM (inactive) | GI50 (UACC-62): > 100 µM (inactive) | GI50 (UO-31): > 100 µM (inactive)

COc1ccc(C(=C(Cl)c2ccccc2)c2ccc(OC)cc2)cc1
GI50 (786-0): > 100 µM (inactive) | GI50 (A498): > 100 µM (inactive) | GI50 (A549): > 100 µM (inactive) | GI50 (ACHN): > 100 µM (inactive) | GI50 (BT-549): > 100 µM (inactive) | GI50 (CAKI-1): > 100 µM (inactive) | GI50 (CCRF-CEM): > 100 µM (inactive) | GI50 (COLO 205): > 100 µM (inactive) | GI50 (DU-145): > 100 µM (inactive) | GI50 (EKVX): > 100 µM (inactive) | GI50 (HCT-116): 48.1 µM (inactive) | GI50 (HCT-15): > 100 µM | GI50 (HL-60): 57.8 µM (inactive) | GI50 (HOP-62): > 100 µM (inactive) | GI50 (HOP-92): > 100 µM (inactive) | GI50 (HT-29): 11.9 µM (inactive) | GI50 (Hs-578T): > 100 µM (inactive) | GI50 (IGROV-1): > 100 µM (inactive) | GI50 (K562): > 100 µM (inactive) | GI50 (KM12): > 100 µM (inactive) | GI50 (LOX IMVI): > 100 µM (inactive) | GI50 (M14): > 100 µM (inactive) | GI50 (MCF7): > 100 µM (inactive) | GI50 (MDA-MB-231): > 100 µM (inactive) | GI50 (MDA-MB-435): > 100 µM (inactive) | GI50 (MDA-N): > 100 µM (inactive) | GI50 (MOLT-4): > 100 µM (inactive) | GI50 (Malme-3M): > 100 µM (inactive) | GI50 (NCI-H226): > 100 µM (inactive) | GI50 (NCI-H23): > 100 µM (inactive) | GI50 (NCI-H460): > 100 µM (inactive) | GI50 (NCI-H522): 84.3 µM (inactive) | GI50 (NCI/ADR-RES): > 100 µM (inactive) | GI50 (OVCAR-3): > 100 µM (inactive) | GI50 (OVCAR-4): > 100 µM (inactive) | GI50 (OVCAR-5): > 100 µM (inactive) | GI50 (OVCAR-8): > 100 µM (inactive) | GI50 (PC-3): > 100 µM (inactive) | GI50 (RPMI-8226): 35.1 µM (inactive) | GI50 (RXF 393): > 100 µM (inactive) | GI50 (SF-268): > 100 µM (inactive) | GI50 (SF-295): > 100 µM (inactive) | GI50 (SF-539): > 100 µM (inactive) | GI50 (SK-MEL-28): > 100 µM (inactive) | GI50 (SK-MEL-2): > 100 µM (inactive) | GI50 (SK-MEL-5): 79.3 µM (inactive) | GI50 (SK-OV-3): > 100 µM (inactive) | GI50 (SN12C): > 100 µM (inactive) | GI50 (SNB-19): > 100 µM (inactive) | GI50 (SW-620): > 100 µM (inactive) | GI50 (T47D): 16.1 µM (inactive) | GI50 (TK-10): > 100 µM (inactive) | GI50 (U-251): > 100 µM (inactive) | GI50 (UACC-257): 86.5 µM (inactive) | GI50 (UACC-62): > 100 µM (inactive) | GI50 (UO-31): > 100 µM (inactive)

CCN(CC)/N=C\c1c2ccccc2cc2ccccc12
GI50 (786-0): 44.2 µM (inactive) | GI50 (A498): 41 µM (inactive) | GI50 (A549): 41.6 µM (inactive) | GI50 (ACHN): 96.8 µM (inactive) | GI50 (BT-549): 84.7 µM (inactive) | GI50 (CAKI-1): 33 µM (inactive) | GI50 (CCRF-CEM): 31.3 µM (inactive) | GI50 (COLO 205): 23.5 µM (inactive) | GI50 (DU-145): 82 µM (inactive) | GI50 (EKVX): 38.4 µM (inactive) | GI50 (HCT-116): 31.8 µM (inactive) | GI50 (HCT-15): 34.6 µM | GI50 (HL-60): 31.7 µM (inactive) | GI50 (HOP-92): 24.4 µM (inactive) | GI50 (HT-29): 25 µM (inactive) | GI50 (Hs-578T): 48 µM (inactive) | GI50 (IGROV-1): 39.4 µM (inactive) | GI50 (K562): 44.9 µM (inactive) | GI50 (KM12): 30.8 µM (inactive) | GI50 (M14): 22 µM (inactive) | GI50 (MDA-MB-231): 24.9 µM (inactive) | GI50 (MDA-MB-435): 34.7 µM (inactive) | GI50 (MDA-N): 39 µM (inactive) | GI50 (MOLT-4): 21 µM (inactive) | GI50 (Malme-3M): 49.8 µM (inactive) | GI50 (NCI-H23): 58.9 µM (inactive) | GI50 (NCI-H460): 30.7 µM (inactive) | GI50 (NCI-H522): 21 µM (inactive) | GI50 (NCI/ADR-RES): 79.4 µM (inactive) | GI50 (OVCAR-4): 54.3 µM (inactive) | GI50 (OVCAR-5): 37.5 µM (inactive) | GI50 (OVCAR-8): 61.8 µM (inactive) | GI50 (PC-3): 41.1 µM (inactive) | GI50 (RPMI-8226): 30.5 µM (inactive) | GI50 (RXF 393): 17.7 µM (inactive) | GI50 (SF-268): 72.8 µM (inactive) | GI50 (SF-295): 39 µM (inactive) | GI50 (SF-539): > 100 µM (inactive) | GI50 (SK-MEL-28): 11.9 µM (inactive) | GI50 (SK-MEL-2): 27.9 µM (inactive) | GI50 (SK-MEL-5): 21.8 µM (inactive) | GI50 (SK-OV-3): > 100 µM (inactive) | GI50 (SN12C): 48.5 µM (inactive) | GI50 (SNB-19): > 100 µM (inactive) | GI50 (SNB-75): 18.3 µM (inactive) | GI50 (SR): 26.6 µM (inactive) | GI50 (SW-620): 29 µM (inactive) | GI50 (T47D): 42.7 µM (inactive) | GI50 (TK-10): 55 µM (inactive) | GI50 (U-251): 24.5 µM (inactive) | GI50 (UACC-257): 27.9 µM (inactive) | GI50 (UACC-62): 53.6 µM (inactive) | GI50 (UO-31): 48.8 µM (inactive)
